Structures are written as SMILES.

The term Kd denotes the free concentration of one partner at which half of the binding sites on the other are occupied at equilibrium, for simple one-to-one binding. By Emax is commonly meant the size of the effect at its maximum, as opposed to the concentration needed. For orientation: EC50 means the concentration needed to bring the measured effect to its halfway point. The low end stands for greater potency, the high end for weaker potency.

Sequence of human STAT6 (P42226 122-658): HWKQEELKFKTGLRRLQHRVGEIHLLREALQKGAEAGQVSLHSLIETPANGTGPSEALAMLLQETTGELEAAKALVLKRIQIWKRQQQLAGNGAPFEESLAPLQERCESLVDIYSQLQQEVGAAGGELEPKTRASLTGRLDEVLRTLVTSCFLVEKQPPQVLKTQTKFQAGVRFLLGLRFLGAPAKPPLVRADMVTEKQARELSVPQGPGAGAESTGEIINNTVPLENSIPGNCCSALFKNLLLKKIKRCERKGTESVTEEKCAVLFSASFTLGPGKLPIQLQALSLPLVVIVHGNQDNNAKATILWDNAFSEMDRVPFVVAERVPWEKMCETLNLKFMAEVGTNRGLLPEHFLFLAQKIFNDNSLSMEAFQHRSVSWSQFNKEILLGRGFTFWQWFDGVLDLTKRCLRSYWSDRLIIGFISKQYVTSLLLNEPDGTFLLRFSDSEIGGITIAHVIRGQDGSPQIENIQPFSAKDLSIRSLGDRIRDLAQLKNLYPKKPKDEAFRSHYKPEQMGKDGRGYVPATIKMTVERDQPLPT

One assay addresses human STAT6 (Homo sapiens (Human), UniProt P42226). Put plainly: Surface plasmon resonance assay (Biacore 8K, binding to immobilized STAT6). Particulars: human STAT6 aa122-658, N-terminal His-tag, CM5 chip, 25° C.; geometric mean; read-out: STAT6 SPR Kd. The essentials:
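Run at 25° C with His-tagged STAT6 aa122-658 (insect-cell expressed) amine-coupled to a CM5 chip, reference-subtracted, in PBS-P+ with 2% DMSO. Multi-cycle kinetics: 60 sec. contact, up to 300 sec. dissociation. Affinity fitted from late report-point binding isotherms, with Rmax both free and fixed to theoretical 1:1.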
(In general: SPR reads the build-up and loss of mass on a sensor chip optically.)
With `C[C@H]1CN(c2ccc(C(=O)N(C)C)cc2)CCN1Cc1cc2c(-c3ccc(N)nc3)ccnc2n1C` [Example 1n5, 4-[(3S)-4-[[4-(6-Amino-3-pyridyl)-1-methyl-pyrrolo[2,3-b]pyridin-2-yl]methyl]-3-methyl-piperazin-1-yl]-N,N-dimethyl-benzamide], the dissociation constant (Kd) was 68.6 nM.

`CNc1ccc(-c2ccnc3c2cc(CN2CCN(c4ccc(C(=O)N(C)C)cn4)CC2)n3C)cn1` [Example 1n7, N,N-Dimethyl-6-[4-[[1-methyl-4-[6-(methylamino)-3-pyridyl]pyrrolo[2,3-b]pyridin-2-yl]methyl]piperazin-1-yl]pyridine-3-carboxamide]: the dissociation constant (Kd) was 1040 nM.

As for `CNc1cc(C)c(-c2ccnc3c2cc(CN2CCN(c4ccc(C(=O)N(C)C)cc4)CC2)n3C)cn1` [Example 1n8, N,N-Dimethyl-4-[4-[[1-methyl-4-[4-methyl-6-(methylamino)-3-pyridyl]pyrrolo[2,3-b]pyridin-2-yl]methyl]piperazin-1-yl]benzamide], the Kd worked out at 2600 nM.

Turning to `CNc1ccc(-c2ccnc3c2cc(CN2CCN(c4ccc(C(=O)N(C)C)cn4)CC2)n3C)nc1` [Example 1n9, N,N-Dimethyl-6-[4-[[1-methyl-4-[5-(methylamino)-2-pyridyl]pyrrolo[2,3-b]pyridin-2-yl]methyl]piperazin-1-yl]pyridine-3-carboxamide], the Kd was found to be 8920 nM.

For the molecule `CNc1ccc(-c2ccnc3c2cc(CN2CCC(F)(c4ccc(C(=O)N(C)C)cc4)CC2)n3C)nc1` [Example 1o19, 4-[4-Fluoro-1-[[1-methyl-4-[5-(methylamino)-2-pyridyl]pyrrolo[2,3-b]pyridin-2-yl]methyl]-4-piperidyl]-N,N-dimethyl-benzamide], the Kd came out at 173 nM.

As for `CNc1ccc(-c2ccnc3c2cc([C@@H](C)N2CCC(c4ccc(C(=O)N(C)C)cc4)CC2)n3C)nc1` [Example 1o25, (R)—N,N-dimethyl-4-(1-(1-(1-methyl-4-(5-(methyl-amino)pyridin-2-yl)-1H-pyrrolo[2,3-b]pyridin-2-yl)ethyl)piperidin-4-yl)benzamide], the equilibrium dissociation constant (Kd) was determined as 1350 nM.

With `CNc1ccc(-c2ccnc3c2cc(CN2CC[C@H](c4ccc(C(=O)N(C)C)cc4)C[C@@H]2C)n3C)nc1` [Example 1o27, N,N-dimethyl-4-((2S,4S)-2-methyl-1-((1-methyl-4-(5-(methylamino)-pyridin-2-yl)-1H-pyrrolo[2,3-b]pyridin-2-yl)methyl)piperidin-4-yl)benzamide], the Kd turned out to be 147 nM.

As to `CNc1ccc(-c2ccnc3c2cc(CN2CCC(c4ccc(C(=O)N(C)C)cn4)CC2)n3C)nn1` [Example 1p5, N,N-Dimethyl-6-[1-[[1-methyl-4-[6-(methylamino)pyridazin-3-yl]pyrrolo[2,3-b]pyridin-2-yl]methyl]-4-piperidyl]pyridine-3-carboxamide], the Kd came to 148 nM.

For `CC(=O)Nc1ccc(-c2ccnc3c2cc(CN2CC[C@H](c4ccc(C(=O)N(C)C)cc4)[C@H](F)C2)n3C)cc1` [Example 1r5, N,N-Dimethyl-4-[(3S,4R)-1-[[4-(4-acetamidophenyl)-1-methyl-pyrrolo[2,3-b]pyridin-2-yl]methyl]-3-fluoro-4-piperidyl]benzamide], the Kd stood at 110 nM.

With `CNc1ccc(-c2ccnc3c2cc(CN2CCN(c4ccc(C(=O)N(C)C)cc4)CC2=O)n3C)cn1` [Example 1s5, N,N-Dimethyl-4-[4-[[1-methyl-4-[6-(methylamino)-3-pyridyl]pyrrolo[2,3-b]pyridin-2-yl]methyl]-3-oxo-piperazin-1-yl]benzamide], the dissociation constant (Kd) came to 70.6 nM.

Turning to `CNc1ccc(-c2ccnc3c2cc(CN2CCC(n4ccc(C(=O)N(C)C)cc4=O)CC2)n3C)cn1` [Example 1s6, N,N-Dimethyl-1-[1-[[1-methyl-4-[6-(methylamino)-3-pyridyl]pyrrolo[2,3-b]pyridin-2-yl]methyl]-4-piperidyl]-2-oxo-pyridine-4-carboxamide], the equilibrium dissociation constant (Kd) was found to be 595 nM.

For the molecule `CNc1ccc(-c2ccnc3c2cc(CN2CCC(c4ccc(C(=O)N(C)C)cc4C)CC2)n3C)cn1` [Example 1s9, N,N,3-Trimethyl-4-[1-[[1-methyl-4-[6-(methylamino)-3-pyridyl]pyrrolo[2,3-b]pyridin-2-yl]methyl]-4-piperidyl]benzamide], the Kd worked out at 48.1 nM.

As to `CNc1ccc(-c2ccnc3c2cc(CN2CC=C(c4ccc(C(=O)N(C)C)cn4)CC2)n3C)cn1` [Example 1s11, N,N-Dimethyl-6-[1-[[1-methyl-4-[6-(methylamino)-3-pyridyl]pyrrolo[2,3-b]pyridin-2-yl]methyl]-3,6-dihydro-2H-pyridin-4-yl]pyridine-3-carboxamide], the Kd came out at 133 nM.

For the molecule `CNc1ccc(-c2ccnc3c2cc(CN2CCC(c4ncc(C(=O)N(C)C)cc4C)CC2)n3C)cn1` [Example 1s15, N,N,5-Trimethyl-6-[1-[[1-methyl-4-[6-(methylamino)-3-pyridyl]pyrrolo[2,3-b]pyridin-2-yl]methyl]-4-piperidyl]pyridine-3-carboxamide], the Kd turned out to be 119 nM.

In the case of `CNc1ccc(-c2ccnc3c2cc(CN2CCC(F)(c4ccc(C(=O)N(C)C)cc4)CC2)n3C)cn1` [Example 1s26, 4-[4-Fluoro-1-[[1-methyl-4-[6-(methylamino)-3-pyridyl]pyrrolo[2,3-b]pyridin-2-yl]methyl]-4-piperidyl]-N,N-dimethyl-benzamide], the Kd was 61.6 nM.

As for `CCS(=O)(=O)n1c(CN2CCC(c3ccc(C(=O)N(C)C)cc3)CC2)cc2c(-c3ccc(NC)nc3)ccnc21` [Example 1x2, 4-[1-[[1-Ethylsulfonyl-4-[6-(methylamino)-3-pyridyl]pyrrolo[2,3-b]pyridin-2-yl]methyl]-4-piperidyl]-N,N-dimethyl-benzamide], the Kd was 54.1 nM.

Take `CNc1ccc(-c2ccnc3c2cc(CN2CCC(c4ccc(C(=O)N(C)C)cc4)CC2)n3CC(C)(C)C)cn1` [Example 1x3, 4-[1-[[1-(2,2-Dimethylpropyl)-4-[6-(methylamino)-3-pyridyl]pyrrolo[2,3-b]pyridin-2-yl]methyl]-4-piperidyl]-N,N-dimethyl-benzamide]: the Kd came to 5280 nM.

Turning to `CNc1ccc(-c2ccnc3c2cc(C(C)N2CCC(c4ccc(C(=O)N(C)C)cc4)CC2)n3C)cn1` (stereo not shown) [Example 1z13, N,N-dimethyl-4-(1-(1-(1-methyl-4-(6-(methylamino)pyridin-3-yl)-1H-pyrrolo[2,3-b]pyridin-2-yl)ethyl)piperidin-4-yl)benzamide], the Kd was 22.3 nM.

For `CN(C)C(=O)c1ccc(C2CCN(Cc3cc4c(-c5ccc(N)nc5)ccnc4n3C)CC2)cc1` [Example 1z19, 4-(1-((4-(6-aminopyridin-3-yl)-1-methyl-1H-pyrrolo[2,3-b]pyridin-2-yl)methyl)piperidin-4-yl)-N,N-dimethylbenzamide], the Kd came to 22.3 nM.

The next assay relates to Eotaxin-3 (CCL26) release in human whole blood stimulated with IL-4. The experiment in a line: Human whole blood eotaxin-3 assay (IL-4 stimulated, Eotaxin-3 release). Type of assay: cell-based. Particulars: Homo sapiens, 48 h. How it is done: This was a human whole blood assay using recombinant human Interleukin 4 to stimulate the blood and measuring the ability of the test compounds to inhibit eotaxin-3 release. The biological activities of the test compounds have been tested in human whole blood stimulated with IL-4 measuring Eotaxin-3 release. The test compounds were added to 384 well clear flat-bottom plate in a 4-fold serial dilution in triplicates using a liquid handler. Human whole blood stabilized in lithium-heparin tubes was added in a volume of 65 μL per well, resulting in a final DMSO concentration of 0.5%. The plate is incubated for 2 h at 37° C. under 5% CO2/95% air. Subsequently, 5 μL of recombinant human IL-4 (R&D Systems, cat #204-ILB) was added to the wells to a final concentration of 400 pM. The plate was incubated for 48 h at 37° C. under 5% CO2/95% air. The plate was spun down for 10 minutes at 500×g and 20 μL supernatant was harvested and transferred to a 384 well v-bottom plate using a liquid handler and stored at −20° C. until further analysis. 10 μL supernatant was used to measure the level of Eotaxin-3 (CCL26) using Human Eotaxin-3 MSD kit from Mesocsale (Cat #K251UEK-4). The assay was performed according to the manufacture instructions.
The data from the human whole blood eotaxin-3 assay is shown below for Examples 1u2, 1x1, 1af26, and 1af36 (where the effect in % is plotted against the test concentration in M on a log-scale).
`CNc1ccc(-c2ccnc3c2cc(CN2CC[C@@H](c4ccc(C(=O)N(C)C)cc4)C[C@@H]2C)n3C)nc1` (single isomer, unassigned) [Example 1o28] had a maximum response (Emax) of less than 20%.

Turning to `CNc1ccc(-c2ccnc3c2cc(CN2CC[C@H](c4ccc(C(=O)N(C)C)cc4)C[C@H]2C)n3C)nc1` (single isomer, unassigned) [Example 1o29], the maximal response (Emax) was less than 20%.

On to `CNc1ccc(-c2ccnc3c2cc(CN2CC[C@@H](c4ccc(C(=O)N(C)C)cc4)[C@H](F)C2)n3C)nc1` (stereo in doubt) [Example 1o17, 4-((3S,4S)-3-fluoro-1-((1-methyl-4-(5-(methylamino)pyridin-2-yl)-1H-pyrrolo[2,3-b]pyridin-2-yl)methyl)piperidin-4-yl)-N,N-dimethylbenzamide], for which the Emax was less than 20%.

Staying with this assay, now noted: Homo sapiens, Hec50, 48 h.
In turn, `Cc1cc(C(=O)N(C)C)cnc1C1=CCN(Cc2cc3c(-c4ccc(N)nn4)ccnc3n2C)CC1` [Example 1ae22, 1′-((4-(6-Aminopyridazin-3-yl)-1-methyl-1H-pyrrolo[2,3-b]pyridin-2-yl)methyl)-N,N,3-trimethyl-1′,2′,3′,6′-tetrahydro-[2,4′-bipyridine]-5-carboxamide] returned an EC50 of 392 nM.

Molecule `[2H]C([2H])([2H])N(C(=O)c1ccc(C2CCN([C@H](C)c3cc4c(-c5ccc(N)cn5)ccnc4n3C)CC2)c(C)c1)C([2H])([2H])[2H]` [Example 1af42, (R)-4-(1-(1-(4-(5-amino-pyridin-2-yl)-1-methyl-1H-pyrrolo[2,3-b]pyridin-2-yl)ethyl)piperidin-4-yl)-3-methyl-N,N-bis(methyl-d3)benzamide] gave an EC50 of 1400 nM.

Consider `[2H]C([2H])([2H])N(C(=O)c1ccc(C2CCN([C@@H](C)c3cc4c(-c5ccc(NCCOC)nc5)ccnc4n3C)CC2)cc1)C([2H])([2H])[2H]` [Example 1af50, (S)-4-(1-(1-(4-(6-((2-methoxyethyl)amino)pyridin-3-yl)-1-methyl-1H-pyrrolo[2,3-b]pyridin-2-yl)ethyl)piperidin-4-yl)-N,N-bis(methyl-d3)benzamide], for which the EC50 amounted to 466 nM.

(Values after patent US20250340551A1, “SMALL MOLECULE MODULATORS OF STAT6” (Gilead Sciences, Inc., priority 2024, published 2025).)
